These are literature values, as cited in US20020142346A1, “Binding compounds and methods for identifying binding compounds” (priority 2000, published 2002).

In general, Kd refers to the concentration at which binding is half-saturated.

For one series, the target named is Src. The following applies: binding domain Src; preferred peptide.
The next series deals with T1, SH2 (src) (Homo sapiens, UniProt P12931).
T1 construct: SH2 (src)
To be noted: binding domain SH2 (src); preferred peptide.

In the case of EPQpYEEIPIYLK, the Kd at Src was 0.08 µM.
Consider PYEEIY, for which, on SH2 (src), the Kd was 0.1 µM.
